# Laboratory results as given in article PMC8373216, “Development and Preclinical Evaluation of New Inhaled Lipoglycopeptides for the Treatment of Persistent Pulmonary Methicillin-Resistant Staphylococcus aureus Infections” (Antimicrobial Agents and Chemotherapy, 2021).
# Like-named read-outs stand apart in the source and are kept apart here.
# How the values were obtained:
# [1] = type: physicochemical; conditions: pH 8
# Description: 40 to the primary metabolite.
# 41 percent degradation is defined as follows:
# [LLLLPPLL ] + [MMPPPPDDMM DDMMDDPPPP ]
# 45 Enzymes studied include :
# 108 Table S1: Enzyme hydrolysis of RV62 and RV94 was measured as a function of time in PBS (pH 8) at 37
# 109 °C. Control samples in the absence of enzyme were included as […]. Samples were analyzed
# 110 by HPLC detecting the parent RV derivative (RV62 or RV94).
# RV Percent RV derivative remaining in HPLC chromatograph, % […]
# [2] = Single-dose nebulized nose-only inhalation PK in healthy rats; type: in vivo, rat; conditions: male, Sprague Dawley, rat, in vivo; for Kp / Lung AUC0-∞ / Lung Cmax / Lung t1/2 / Plasma Cmax: inhaled or intranasal
# Description: Rats were acclimated in the study facility for approximately 1 week prior to study start. Ten or eleven rats per cohort were loaded into the chamber at the time of dosing. […] An additional airflow set to 6 liters/min was admixed with the nebulizer output to further direct the test articles to the animals. […] The remaining port on the chamber was fit with an aerosol sampling filter for dose determination over a 5 min sampling period. The average dose delivered to the nose of each animal was calculated using an algorithm that was previously described ([49]). […] Animals were euthanized for collection of whole lungs and plasma at time points ranging from immediate postdose (IPD; approximately 30 min after dosing for nebulization) to 168 h postdose (7 days). Drugs were extracted from tissues using customized protein precipitation methods with an appropriate internal standard for each compound and transferred for analysis by LC-MS/MS (Sciex API4500 or API6500+ mass spectrometer [Sciex, Framingham, MA]). GraphPad Prism (La Jolla, CA) was used for statistical analyses and data plotting. […] The data were applied to a noncompartmental analysis after extravascular dosing input and fit to a linear up/log down model. Statistical analysis of in vitro intracellular and biofilm activity was based on a two-way ANOVA with a Bonferroni post test. In vivo statistical analysis was based on the Kolmogorov-Smirnov test.
# [3] = tested on: MRSA ATCC BAA 1556 (USA300); assay: In-house broth microdilution MIC screening; type: cell-based, Staphylococcus aureus; conditions: Staphylococcus aureus; broth microdilution; read-out: MIC Value, MRSA ATCC BAA 1556
# [4] = tested on: MSSA ATCC 29213; assay: In-house broth microdilution MIC screening; type: cell-based; conditions: Staphylococcus aureus; broth microdilution; read-out: MIC Value, MSSA ATCC 29213
Structure (SMILES),Percent RV derivative remaining in HPLC chromatograph ([1]; 0 h),Percent RV derivative remaining in HPLC chromatograph ([1]; 0.5 h),Percent RV derivative remaining in HPLC chromatograph ([1]; 1 h),Percent RV derivative remaining in HPLC chromatograph ([1]; 2 h),Pulmonary dose [2],Time to full conversion to hydrolysis product in the lung [2],Drug lung level at 120 h [2],Primary hydrolysis byproduct lung level at 120 h [2],Kp [2],Lung AUC0-∞ [2],Lung Cmax [2],Lung t1/2 [2],Plasma Cmax [2],MIC [3],MIC [4],Lung retention of primary hydrolysis by-product [2]
CCCCCCCCCCCC(=O)NCCNC1(C)CC(OC2C(Oc3c4cc5cc3Oc3ccc(cc3Cl)C(O)C3NC(=O)C(NC(=O)C5NC(=O)C(CC(N)=O)NC(=O)C(NC(=O)C(CC(C)C)NC)C(O)c5ccc(c(Cl)c5)O4)c4ccc(O)c(c4)-c4c(O)cc(O)cc4C(C(=O)O)NC3=O)OC(CO)C(O)C2O)OC(C)C1O (centres unmarked) [RV62],97.14%,97.14%,97.38%,97.07%,0.15 mg/kg,≤ 24 h,0.1%,107%,1550,317 µg·h/g,30 µg/g,11 h,20 ng/mL,0.016 µg/mL,0.016 µg/mL,
CNC(CC(C)C)C(=O)NC1C(=O)NC(CC(N)=O)C(=O)NC2C(=O)NC3C(=O)NC(C(=O)NC(C(=O)O)c4cc(O)cc(O)c4-c4cc3ccc4O)C(O)c3ccc(c(Cl)c3)Oc3cc2cc(c3OC2OC(CO)C(O)C(O)C2OC2CC(C)(NCCO)C(O)C(C)O2)Oc2ccc(cc2Cl)C1O (centres unmarked) [RV80],,,,,,,,,,,,,,2 µg/mL,1.5 µg/mL,sustained in the lung throughout the course of the 120 h experiments
CNC(CC(C)C)C(=O)NC1C(=O)NC(CC(N)=O)C(=O)NC2C(=O)NC3C(=O)NC(C(=O)NC(C(=O)O)c4cc(O)cc(O)c4-c4cc3ccc4O)C(O)c3ccc(c(Cl)c3)Oc3cc2cc(c3OC2OC(CO)C(O)C(O)C2OC2CC(C)(NCCN)C(O)C(C)O2)Oc2ccc(cc2Cl)C1O (centres unmarked) [RV82],,,,,,,,,,,,,,2 µg/mL,2 µg/mL,sustained in the lung throughout the course of the 120 h experiments
CCCCCCCCCCCCCC(=O)OCCNC1(C)CC(OC2C(Oc3c4cc5cc3Oc3ccc(cc3Cl)C(O)C3NC(=O)C(NC(=O)C5NC(=O)C(CC(N)=O)NC(=O)C(NC(=O)C(CC(C)C)NC)C(O)c5ccc(c(Cl)c5)O4)c4ccc(O)c(c4)-c4c(O)cc(O)cc4C(C(=O)O)NC3=O)OC(CO)C(O)C2O)OC(C)C1O (centres unmarked) [RV88],,,,,0.12 mg/kg,≤ 24 h,1.5%,71%,1350,360 µg·h/g,26 µg/g,21 h,20 ng/mL,0.125 µg/mL,0.125 µg/mL,
